Data on 14 compounds can be found in PubChem BioAssay AID504565 (NMMLSC, 2011).

The test has as its system Mouse 2C CD8+ T cell-vesicle binding, flow cytometry. The test is described as follows: modulators of CD8 T cell-vesicle binding, dose response, powder samples, mouse 2C CD8+ cells (AID 504565).
Where [1] appears, read: CD8+ 90th percentile fluorescence.
Setting [2] is: double positive events percentage.

On to `O=C(COC(=O)C12CC3CC(CC(Br)(C3)C1)C2)Nc1cccc(S(=O)(=O)N2CCOCC2)c1`, for which the EC50 is 8.26 µM under setting [1] and 3.22 µM under setting [2].

Consider `CCN(CC)S(=O)(=O)c1ccc(Cl)c(NC(=O)COC(=O)C2CCCCC2)c1`, for which the EC50 reads like this: under setting [1], 38.8 µM; under setting [2], 37.6 µM.

On to `CCOC(=O)C1CCCN(S(=O)(=O)c2ccc(F)c(C(=O)Nc3ccc(F)c(F)c3)c2)C1` (stereo unspecified), for which the EC50 runs as follows: under setting [1], 37.7 µM; under setting [2], 34.4 µM.

As for `O=C(O)C1CCC(Cn2c(SCc3cc(=O)n4cc(Cl)ccc4n3)nc3ccsc3c2=O)CC1` (stereo unspecified), the EC50 runs as follows: under setting [1], 34.8 µM; under setting [2], 33.7 µM.

For `O=C(c1ccc(N2C(=O)C3CC=C(Cl)CC3C2=O)cc1)N1CCCCC1` (stereo unspecified), the EC50 was determined as 34.9 µM under setting [1] and 39.8 µM under setting [2].

`O=C(NCC1CCCCC1)c1ccc(Cl)c(S(=O)(=O)N2CCOCC2)c1`: the EC50 by setting is: under setting [1], 21.4 µM; under setting [2], 17.1 µM.

With `Cc1cc(Cl)c(OCCCSc2nc(C)cc(=O)[nH]2)c(Br)c1`, under setting [1], the EC50 came out at 22.6 µM.

Regarding `COCc1c(C(=O)Nc2cccc(S(=O)(=O)N3CCCCC3)c2)oc2ccccc12`, the EC50 came to 6.43 µM under setting [1] and 7.96 µM under setting [2].

Consider `CN(CC(=O)Nc1cc(S(=O)(=O)N2CCCC2)ccc1Cl)Cc1ccc2c(c1)OCO2`, for which the EC50 is, setting by setting: under setting [1], 8 µM; under setting [2], 9.84 µM.

As to `Cc1ccccc1C(=O)N1CCC(C(=O)Nc2ccc(C)c(S(=O)(=O)N3CCCCC3)c2)CC1`, the EC50 runs as follows: under setting [1], 17 µM; under setting [2], 16.3 µM.

For the compound `CCOC(=O)c1ccc(S(=O)(=O)N2CCN(C3CCCC3)CC2)cc1`, the EC50 stood at 14 µM under setting [1] and 10.4 µM under setting [2].

On to `COc1ccc(S(=O)(=O)N2CCCC2C(=O)Nc2ccc(C(C)=O)cc2)cc1` (stereo unspecified), for which the 50% effective concentration (EC50) runs as follows: under setting [1], 20.7 µM; under setting [2], 20.2 µM.

`CCOc1ccc(-c2nc(N)ncc2-c2ccccc2)c(O)c1` gave an EC50 under setting [1] of 0.239 µM.

In the case of `CCOCC(=O)Nc1ccc(S(=O)(=O)N2CCC(c3nc4ccccc4[nH]3)CC2)cc1`, the EC50 by setting is: under setting [1], 0.6 µM; under setting [2], 0.63 µM.
